# From patent publication US9540356B2 (priority 2012, dated 2017)
# Legend:
# HeLa cells [1] = format: cell-based, human
# HeLa cells [2] = experiment: cells; format: cell-based; conditions: Homo sapiens
# [3] = system: retrograde transport of Shiga toxin subunit B (StxB); format: cell-based
smiles,measurement,setting,value
"CN1c2ccccc2C(=O)N(c2ccccc2)C1c1ccc(-c2ccco2)s1 (stereo not drawn) [Compound 40, 2-(5-(Furan-2-yl)thiophen-2-yl)-1-methyl-3-phenyl-2,3-dihydroquinazolin-4(1H)-one]","R (Stx), protective index",HeLa cells [1],27
same,IC50,HeLa cells [2],1500 nM
same,"retrograde transport, % control",[3],5.3%
